One may read the EC50 as the concentration needed to bring the measured effect to its halfway point.

Holding throughout (format): cell-based
One test relates to CCF-STTG1. As to the kind of experiment: Cell viability panel, ATPlite 1Step. As to conditions: Homo sapiens, Astrocytoma, 72 h exposure, read-out: Compound EC50. On the procedure:
(§1) Cell viability panel studies. Cells were diluted in the corresponding ATCC recommended medium and dispensed in a 384-well plate, depending on the cell line used, at a density of 200-6400 cells per well. For each used cell line, the optimal cell density was used. Compound was serially diluted and 8 concentration (0.04-32 μM) were added to the cells for 72 h exposure. At t=end, of ATPlite 1Step™ (PerkinElmer) were used to calculate cell viability. Cell lines marked with asterisk were seeded 24 h prior to treatment in 96-well plates at the density range of 5,000-40,000 cells/well, according to duplication rate, in RPMI 1640 medium containing 10% fetal bovine serum and 2 mM L-glutamine. Compounds were diluted from 10 mM DMSO stock and treatment was applied at the range of 0.04-1 μM. Following incubation at 37° C. for 48 hours with increasing concentrations of the compounds, viability was determined with CyQUANT® Direct Assay Kit (Invitrogen). Output intensities were normalized to values after treatment with DMSO alone, and EC50 values were calculated using the absorbance measurements [time zero, (Tz), growth control, (C), plus the test growth at the four drug concentration levels (Ti)] as follows: [(Ti−Tz)/(C−Tz)]×100 for concentrations for which Ti>/=Tz; [(Ti−Tz)/Tz]×100 for concentrations for which Ti−<Tz.
On the technique in general: In ATP-based viability assays light output follows the ATP content of the culture.

Another test deals with BxPC-3. Nature of the test: Cell viability panel, ATPlite 1Step. As to conditions: Homo sapiens, Pancreatic ductal adenocarcinoma, 72 h exposure, read-out: Compound EC50. On the procedure: as §1
The test system of another test is DoTc2 4510. Nature of the test: Cell viability panel, ATPlite 1Step. As to conditions: Homo sapiens, Cervical carcinoma, 72 h exposure, read-out: Compound EC50. On the procedure: as §1
The test system of another test is SU-DHL-1. As to the kind of experiment: Cell viability panel, ATPlite 1Step. To be noted: Homo sapiens, Anaplastic large cell lymphoma, 72 h exposure, read-out: Compound EC50. Here is the method:
as §1

In the next test the test system is FaDu. As to the kind of experiment: Cell viability panel, ATPlite 1Step. As to conditions: Homo sapiens, Hypopharyngeal squamous cell carcinoma, 72 h exposure, read-out: Compound EC50. On the procedure: as §1
The test system of the next test is SR. Nature of the test: Cell viability panel, ATPlite 1Step. As to conditions: Homo sapiens, Anaplastic large cell lymphoma, 72 h exposure, read-out: Compound EC50. Here is the method: as §1
For test [1], the system named is HL-60. Nature of the test: Cell viability panel, ATPlite 1Step. To be noted: Homo sapiens, Acute myeloid leukemia, 72 h exposure, read-out: Compound EC50. Here is the method: as §1
A further test relates to U-2 OS. Nature of the test: Cell viability panel, ATPlite 1Step. As to conditions: Homo sapiens, U2OS, Osteosarcoma, 72 h exposure, read-out: Compound EC50. On the procedure: as §1
Another test has as its system SU-DHL-6. As to the kind of experiment: Cell viability panel, ATPlite 1Step. As to conditions: Homo sapiens, Diffuse large B-cell lymphoma, 72 h exposure, read-out: Compound EC50. Here is the method:
as §1

The test system of a further test is AsPC-1. As to the kind of experiment: Cell viability panel, ATPlite 1Step. To be noted: Homo sapiens, ASPC1, Pancreatic ductal adenocarcinoma, 72 h exposure, read-out: Compound EC50. On the procedure:
as §1

The test system of the next test is RKO. As to the kind of experiment: Cell viability panel, ATPlite 1Step. To be noted: Homo sapiens, Colon carcinoma, 72 h exposure, read-out: Compound EC50. Here is the method: as §1
Another test has as its system A-172. As to the kind of experiment: Cell viability panel, ATPlite 1Step. As to conditions: Homo sapiens, Glioblastoma, 72 h exposure, read-out: Compound EC50. On the procedure:
as §1

Another test has as its system SW982. As to the kind of experiment: Cell viability panel, ATPlite 1Step. As to conditions: Homo sapiens, Biphasic synovial sarcoma, 72 h exposure, read-out: Compound EC50. Here is the method:
as §1

In the next test the test system is MIA PaCa-2. Nature of the test: Cell viability panel, ATPlite 1Step. To be noted: Homo sapiens, Pancreatic ductal adenocarcinoma, 72 h exposure, read-out: Compound EC50. Here is the method:
as §1

The next test relates to PA-1. Nature of the test: Cell viability panel, ATPlite 1Step. To be noted: Homo sapiens, Ovarian mixed germ cell tumor, 72 h exposure, read-out: Compound EC50. On the procedure: as §1
In the next test the test system is A-427. Nature of the test: Cell viability panel, ATPlite 1Step. To be noted: Homo sapiens, Lung adenocarcinoma, 72 h exposure, read-out: Compound EC50. On the procedure:
as §1

In a further test the test system is SW626. As to the kind of experiment: Cell viability panel, ATPlite 1Step. As to conditions: Homo sapiens, Colon adenocarcinoma, 72 h exposure, read-out: Compound EC50. On the procedure:
as §1

A further test relates to U-87 MG. Nature of the test: Cell viability panel, ATPlite 1Step. As to conditions: Homo sapiens, Glioblastoma, 72 h exposure, read-out: Compound EC50. Here is the method: as §1
The next test has as its system J82. As to the kind of experiment: Cell viability panel, ATPlite 1Step. As to conditions: Homo sapiens, Bladder carcinoma, 72 h exposure, read-out: Compound EC50. On the procedure: as §1
A further test deals with DB. As to the kind of experiment: Cell viability panel, ATPlite 1Step. As to conditions: Homo sapiens, Diffuse large B-cell lymphoma, 72 h exposure, read-out: Compound EC50. On the procedure:
as §1

Another test concerns LS411N. As to the kind of experiment: Cell viability panel, ATPlite 1Step. To be noted: Homo sapiens, LS-411N, Cecum adenocarcinoma, 72 h exposure, read-out: Compound EC50. Here is the method: as §1
A further test deals with NCI-H82. As to the kind of experiment: Cell viability panel, ATPlite 1Step. As to conditions: Homo sapiens, Small cell lung carcinoma, 72 h exposure, read-out: Compound EC50. On the procedure: as §1
For the next test, the system named is DU-145. As to the kind of experiment: NCI60 screen cytotoxicity. As to conditions: Homo sapiens, Prostate cancer, read-out: Compound B1 EC50.
Test [2] has as its system HL-60. Nature of the test: NCI60 screen cytotoxicity. As to conditions: Homo sapiens, Leukemia, read-out: Compound B1 EC50.
A further test has as its system CCRF-CEM. As to the kind of experiment: NCI60 screen cytotoxicity. As to conditions: Homo sapiens, Leukemia, read-out: Compound B1 EC50.
Test [3] relates to autophagic vacuoles in MM1.S cells. As to the kind of experiment: Autophagy quantification with CYTO-ID dye, flow cytometry. As to conditions: 0.2 μM, 5 hours, vs vehicle. Here is the method: MM1.S cells were treated with 0.2 μM Compound B1 or vehicle (DMSO) for 5 h. Detection of autophagy vesicles was done by CYTO-ID® green autophagy dye that selectively labels autophagic vacuoles. The samples were analyzed using flow cytometer and the data were plotted on histogram: cell counts vs. FITC fluorescence intensity.
Autophagy Quantification: Quantification of autophagosomes were done with CytoID (ENZO). CYTO-ID® Autophagy Detection Kit measures autophagic vacuoles and monitors autophagic flux in live cells using a dye that selectively labels autophagic vacuoles. The probe is a cationic amphiphilic tracer dye that rapidly partitions into cells in a similar manner as drugs that induce phospholipidosis. MM1.S cells were treated with Compound B1 or vehicle for 5 hours. Following treatment period the cells were harvested and stained with CytoID dye according to manufacturer instructions. Autophagosomes were analyzed and quantified using flow cytometer (Miltenyi). Data of cell counts were plotted as FITC (FL1) fluorescence intensity.
Background: In flow cytometry, cells or beads pass a laser one at a time.

Regarding `CN(C)CCCS(=O)(=O)N1C/C(=C\c2ccc(C#N)cc2)C(=O)/C(=C/c2ccc(C#N)cc2)C1` [Compound AA], the EC50 with CCF-STTG1, in the test with BxPC-3, with DoTc2 4510, in the test on SU-DHL-1, in the test with FaDu and in the test on SR was under 300 nM throughout. The EC50 in the test with HL-60 [1] is under 300 nM; in the test with U-2 OS it was under 300 nM; in the test on SU-DHL-6, under 300 nM; in the test on AsPC-1, 300 to 1000 nM; in the test with RKO, under 300 nM; in the test on A-172 it was under 300 nM. Moreover, the EC50 was under 300 nM in the test with SW982; 300 to 1000 nM in the test with MIA PaCa-2; under 300 nM in the test with PA-1; under 300 nM in the test on A-427; under 300 nM in the test on SW626; under 300 nM in the test on U-87 MG. Also, the EC50 in the test on J82 is 300 to 1000 nM; with DB, under 300 nM; with LS411N, 300 to 1000 nM; in the test with NCI-H82, under 300 nM.
Consider `CN(C)CC(=O)NCC(=O)N1C/C(=C\c2ccc(C#N)cc2)C(=O)/C(=C/c2ccc(C#N)cc2)C1` [Compound B1], for which the EC50 with DU-145, in the test on HL-60 [2] and in the test with CCRF-CEM was under 300 nM each time. The “autophagosomal vesicles (CYTO-ID fluorescence)” value in test [3] is recorded as “significantly lower fluorescent dye then vehicle treated cells”.
